Results: US20030113321A1, “Novel G-protein-coupled receptor protein and its DNA” (priority 2000, published 2003)

Experiments:
Format in all cases: cell-based
TGR4 [1] = target: T1, TGR4 (Homo sapiens, UniProt Q9H1C0); test: Reporter gene (CRE-luciferase) expression level in cells with transient TGR4 expression; set-up: expressed in transfected cells; host or cells: CHO-mock cells (CHO(dhfr-) transformed with pAKKO-111H), transiently transfected with pAK-TGR4, pAK-Gi and pCRE-Luc; settings: TGR4 gene-transfected CHO-mock cells (co-transfected with pAK-Gi and pCRE-Luc), 4 hours, FIG. 4
Text: TGR4 cDNA or inhibitory G protein α subunit Gi cDNA was inserted into the animal cell expression vector plasmid pAKKO-111H (the plasmid vector identical to the pAKKO-1.11H described in Biochim. Biophys. Acta, Hinuma, S., et al., 1219, 251-259, 1994) by publicly known methods. The expression vector plasmids pAK-TGR4 and pAK-Gi thus produced and pAKKO-111H without any particular gene inserted were transfected to CHO cells by the following procedures.
First, using these vectors, Escherichia coli JM109 was transformed; after the colony obtained was isolated and incubated, a plasmid was prepared using QIAGEN Plasmid Maxi Kit (Qiagen, Inc.). […]
Geranylgeranyl diphosphate (GGPP, Sigma, Inc.), farnesyl diphosphate (FPP, Sigma, Inc.) and lysophosphatidic acid (LPA, Sigma, Inc.) were diluted in the assay buffer, respectively, and each dilution was added to the transfected CHO-mock cells described above in a concentration of 1, 0.1 and 0.01 μM, followed by incubation at 37° C. for 4 hours under 5% CO2. The culture supernatant was discarded and 50 μl of a substrate for assaying an luciferase activity or PicaGene LT 2.0 (Toyo Ink Mfg. Co., Ltd.) was added, and the luminescence amount of luciferase was assayed by using a plate reader (ARVO sx multi-label counter, Walac, Inc.).

TGR4 [2] = target: T1, TGR4; test: Intracellular cAMP production amount in TGR4-expressed CHO cells; set-up: expressed in transfected cells; host or cells: CHO cells stably expressing TGR4 (CHO-TGR4); settings: 2 μM; CHO-TGR4 compared with CHO-mock cells; 30 minutes at 37° C.; n is 3; FIGS. 7 and 8
Description: CHO-mock cells with neither CHO-TGR4 nor receptor gene introduced, which were prepared in EXAMPLE 4, were plated in a 96-well plate (Beckton-Dickinson, Inc.) in 25,000 cells/well, followed by incubation overnight at 37° C. under 5% CO2. This culture solution was used for assay. A sample buffer used was HBSS supplemented with 0.1% BSA and 0.2 mM I BMX (Sigma, Inc.). The cells were washed twice with the sample buffer and pre-incubated at 37° C. for 30 minutes. The cells were further washed twice and the sample was added thereto followed by incubation at 37° C. for 30 minutes. The sample was added in 2 μM of farnesyl diphosphate or lysophosphatidic acid. After incubation in the presence of the sample, the amount of intracellular cAMP production was assayed by using cAMP Screen System (ABI).

TGR4 [3] = target: T1, TGR4; test: Intracellular calcium ion mobilization activity in TGR4-expressed CHO cells (FLIPR); set-up: expressed in transfected cells; host or cells: CHO cells stably expressing TGR4 (CHO-TGR4); settings: 2.5 μM; CHO-TGR4 compared with CHO-mock cells; about 3 minutes after addition; FIGS. 5 and 6
Description: Using the plasmids for TGR4 expression prepared in EXAMPLE 3, CHO-TGR4 as CHO cells for stable TGR4 expression was prepared by a publicly known method. CHO-mock cells with neither CHO-TGR4 nor receptor gene introduced were plated in a 96-well black plate (Costar, Inc.) with the clear bottom in a concentration of 3000 cells/well, and cultured overnight at 37° C. under 5% CO2. The culture solution was used for assay. A wash buffer was prepared by adding 20 mM HEPES, pH 7.4 and 2.5 mM probenecid (Sigma, Inc.) to Hank's balanced salt solution (HBSS, Gibco BRL, Inc.). As a sample buffer, the wash buffer supplemented with 0.1% bovine serum albumin (BSA, Sigma, Inc.) was used. As a dye loading solution there was used a mixture prepared by adding 1% FBS, 4 μM Fluo 3-AM (Wako Pure Chemical Industry Co., Ltd.) and 0.04% Pluronic acid (Molecular Probes, Inc.) to the wash buffer. The medium of the cells was discarded and the dye loading solution was added. After incubation at 37° C. for an hour, the cells were washed with the wash buffer using a plate washer. The cells were set on Fluorometric Imaging Plate Reader (FLIPR, Molecular Devices, Inc.) and a change of the intracellular calcium ion level was measured for about 3 minutes after addition of the sample. As the sample, FPP or LPA was added in a concentration of 2.5 μM.

T1 sequence (Q9H1C0 whole entry): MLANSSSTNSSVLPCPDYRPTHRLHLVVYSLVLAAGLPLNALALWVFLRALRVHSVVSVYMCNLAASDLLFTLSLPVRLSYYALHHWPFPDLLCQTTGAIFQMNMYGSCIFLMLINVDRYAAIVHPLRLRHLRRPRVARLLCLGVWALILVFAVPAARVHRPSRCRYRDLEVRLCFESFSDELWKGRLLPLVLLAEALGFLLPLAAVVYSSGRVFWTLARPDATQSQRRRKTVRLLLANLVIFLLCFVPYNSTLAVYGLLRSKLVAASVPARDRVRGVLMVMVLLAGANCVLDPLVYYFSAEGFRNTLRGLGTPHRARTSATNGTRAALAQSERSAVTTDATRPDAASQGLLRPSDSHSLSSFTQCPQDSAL

CC(C)=CCC/C(C)=C/CC/C(C)=C/CC/C(C)=C/COP(=O)(O)OP(=O)(O)O [GGPP, Geranylgeranyl diphosphate]
luciferase activity (TGR4 [1]; 1 and 0.1 μM): increased luciferase activity

lysophosphatidic acid [LPA]
amount of intracellular cAMP production (TGR4 [2]): increased specifically to CHO-TRG4
luciferase activity (TGR4 [1]; 1 μM): increased luciferase activity
intracellular calcium ion mobilization activity (TGR4 [3]): increased specifically to CHO-TRG4
